Assay results taken from patent US12433830B2, “Anti-aging compositions and methods of use thereof” (S.I.S. SHULOV INNOVATIVE SCIENCE LTD., priority 2019, dated 2025).
Where a SMILES comes first, the peptide text is derived from it. [ ]: non-standard residue; d: D form. The star is where a group is joined. pGlu = O=C1CC[C@@H](C(=O)O)N1; Octanoyl = CCCCCCCC(=O)*

How the values were obtained:
[1] = system: epidermal cells; assay: Formation of reactive oxygen species (ROS) in epidermal cells under stress conditions; assay type: cell-based; settings: stress conditions (70 mM NaCl)
[2] = system: epidermal cells; assay: Viability of epidermal cells under stress conditions; assay type: cell-based; settings: stress conditions (70 mM NaCl)
[3] = rat, chemical corneal injury; cited from earlier work
[4] = system: Mattek's EpiDerm™ X (EPI-606-X) reconstructed human epidermis tissue; assay: Skin metabolism, full scan HRMS search for metabolites in permeation samples; assay type: in vitro ADME; settings: t=4, 8, 20, 22, 24 h vs time zero; positive and negative ESI
Description: The skin metabolism of ZEP3 and ZEP3Na was also investigated. Full scan HRMS chromatograms were acquired for the samples, in both positive and negative ESI mode, in order to identify possible metabolites of the target analytes. Differential analysis between the samples through the experiment (t=4, 8, 20, 22, and 24 h) and the sample at time zero was performed. Evaluation of the fragmentation profile through MS/MS experiments was also performed in order to provide additional information.

Molecule | formation of reactive oxygen species (ROS) [1] | viability of epidermal cells [2] | effect on ocular pain [3] | metabolites identified [4]
pGlu-Asn-Trp-Thr-OH ([pGlu]NWT-OH; SMILES C[C@@H](O)[C@H](NC(=O)[C@H](Cc1c[nH]c2ccccc12)NC(=O)[C@H](CC(N)=O)NC(=O)[C@@H]1CCC(=O)N1)C(=O)O) [ZEP4] | reduced the formation of reactive oxygen species (ROS) | increased viability of epidermal cells | analgesic effect | –
CCCCCCCC(=O)NCCCC[C@H](NC(=O)[C@H](Cc1c[nH]c2ccccc12)NC(=O)[C@H](CC(N)=O)NC(=O)[C@@H]1CCC(=O)N1)C(=O)O [ZEP3, pGlu-Asn-Trp-Lys(Octanoyl)-OH] ([pGlu]NWK(Octanoyl)-OH) | reduced the formation of reactive oxygen species (ROS) | increased viability of epidermal cells | – | No metabolites
